We go through 104 compounds from EPA's aquatic toxicity sets.

The subject of this series is Daphnia magna. Kind of series: 48 h LC50 (-log10 mol/L); higher = more toxic.
With `Clc1cc(Cl)c(-c2cc(Cl)c(Cl)cc2Cl)cc1Cl`, the “48 h LC50 (-log10 mol/L)” value turned out to be 8.44.
For `CO/N=C(/C(=O)OC)c1ccccc1CO/N=C(\C)c1cccc(C(F)(F)F)c1` the value was 5.74; for `Nc1cc(Cl)c(Cl)c(Cl)c1Cl`, 5.56.
Turning to `CN(C)C(=O)Nc1ccc(Oc2ccc(Cl)cc2)cc1`, the “48 h LC50 (-log10 mol/L)” value amounted to 4.99.
For `ClC=CCCl` the value was 4.32; for `Nc1cc(Cl)c(Cl)cc1Cl`, 4.76; for `CCNc1nc(NCC)nc(SC)n1`, 3.63.
Next, `ClCC(Cl)(Cl)Cl`: 3.84; `CBr`: 4.63; `COP(=O)(NC(C)=O)SC` (centres undefined): 4.11.
Consider `CSc1nc(NC2CC2)nc(NC(C)(C)C)n1`, for which the “48 h LC50 (-log10 mol/L)” value was 4.49.
For `C/C=C(\C)C(=O)O[C@H]1C[C@@H](OC(C)=O)[C@@]2(C(=O)OC)CO[C@H]3[C@@H](O)[C@@](C)([C@]45O[C@@]4(C)[C@H]4C[C@@H]5O[C@@H]5OC=C[C@@]54O)[C@H]4[C@]1(CO[C@]4(O)C(=O)OC)[C@@H]32` the value was 6.06; for `O=c1cc[nH]c(=S)[nH]1`, 4.22; for `Clc1ccc(-c2ccc(Cl)c(Cl)c2)cc1Cl`, 8.16.
For `Fc1ccc([C@@]2(Cn3cncn3)O[C@@H]2c2ccccc2Cl)cc1`, the “48 h LC50 (-log10 mol/L)” value amounted to 4.58.
Next, `CCS`: 5.56.
Next, `Cc1cc(Cl)ccc1OCC(=O)O`: 3.05; `O=S1(=O)C=Cc2ccccc21`: 4.07.
Turning to `Clc1cc(Cl)c(Cl)c(Cl)c1`, the “48 h LC50 (-log10 mol/L)” value was found to be 4.87.
For `CC(C)C(=O)Nc1ccc([N+](=O)[O-])c(C(F)(F)F)c1` the value was 5.3.
With `CC(C)NCC(O)COc1cccc2[nH]c3ccccc3c12` (centres undefined), the “48 h LC50 (-log10 mol/L)” value is 4.3.
With `CC(C)(C)CC(C)(C)c1ccc(O)cc1`, the “48 h LC50 (-log10 mol/L)” value stood at 6.36.
Next, `CC(C)C1OCC=CCO1`: 2.27; `Cc1ccc2sccc2c1`: 4.03.
As to `CN1CCCC1=O`, the “48 h LC50 (-log10 mol/L)” value was 4.91.
Consider `Nc1ccn([C@H]2CC[C@@H](CO)O2)c(=O)n1`, for which the “48 h LC50 (-log10 mol/L)” value stood at 2.07.
Next, `CN=C=S`: 5.42; `c1ccc2c(c1)cc1ccc3cccc4ccc2c1c34`: 6; `c1ccc2cc3c(ccc4ccccc43)cc2c1`: 6.22.
In the case of `Cc1ccc(Cl)cc1Cl`, the “48 h LC50 (-log10 mol/L)” value worked out at 5.42.
On to `Nc1nc(N)c2nc(-c3ccccc3)c(N)nc2n1`, for which the “48 h LC50 (-log10 mol/L)” value was 4.4.
For `CCCCC` the value was 3.87; for `COC(=O)C1=C(C)NC(C)=C(C(=O)OCC(C)C)C1c1ccccc1[N+](=O)[O-]` (centres undefined), 4.07; for `CC(Cc1ccc(C(C)(C)C)cc1)CN1CCCCC1` (centres undefined), 5.72.
For `CNC(=O)Oc1cccc2c1OC(C)(C)O2` the value was 6.88; for `CN1C(=O)CN=C(c2ccccc2)c2cc(Cl)ccc21`, 4.82; for `COc1ccc2nc(S(=O)Cc3ncc(C)c(OC)c3C)[nH]c2c1` (centres undefined), 3.59.
Next, `CN(C)[C@@H]1C(=O)C(C(N)=O)=C(O)[C@@]2(O)C(=O)C3=C(O)c4c(O)ccc(Cl)c4[C@@](C)(O)[C@H]3C[C@@H]12`: 3.57; `CCC(C)c1ccccc1OC(=O)NC` (centres undefined): 6.32; `CN(C)c1nc(=O)n(C2CCCCC2)c(=O)n1C`: 3.22.
Take `c1ccc2c(c1)ccc1sc3ccccc3c12`: the “48 h LC50 (-log10 mol/L)” value is 6.03.
Regarding `Clc1ccc(-c2ccc(Cl)cc2Cl)cc1`, the “48 h LC50 (-log10 mol/L)” value worked out at 6.21.
As to `CC(C)CCCCCCCOP(=O)(Oc1ccccc1)Oc1ccccc1`, the “48 h LC50 (-log10 mol/L)” value was 7.1.
Next, `CO/C=C(/C(=O)OC)c1ccccc1Oc1cc(Oc2ccccc2C#N)ncn1`: 6.39; `CC(C)(C)NCC(O)COc1cccc2c1C[C@H](O)[C@H](O)C2` (some centres undefined): 3.28.
On to `c1ccc2c(c1)Cc1ccccc1O2`, for which the “48 h LC50 (-log10 mol/L)” value turned out to be 3.95.
For the compound `O=C1CN(/N=C/c2ccc([N+](=O)[O-])o2)C(=O)N1`, the “48 h LC50 (-log10 mol/L)” value was 3.51.
On to `CN(C)[C@@H]1C(=O)C(C(N)=O)=C(O)[C@@]2(O)C(=O)C3=C(O)c4c(O)cccc4[C@@](C)(O)[C@H]3C[C@@H]12`, for which the “48 h LC50 (-log10 mol/L)” value came out at 6.43.
Take `CCCSc1ccc2nc(NC(=O)OC)[nH]c2c1`: the “48 h LC50 (-log10 mol/L)” value stood at 7.04.
Next, `CCCCC(CC)COC(=O)CCCCC(=O)OCC(CC)CCCC` (centres undefined): 5.75.
Turning to `ClC1=C(Cl)[C@]2(Cl)[C@@H]3[C@@H](Cl)[C@H]4O[C@H]4[C@@H]3[C@@]1(Cl)C2(Cl)Cl`, the “48 h LC50 (-log10 mol/L)” value came to 6.21.
For `CC(C)OC(=O)Nc1cccc(Cl)c1` the value was 4.76; for `O=[N+]([O-])c1ccc(Oc2c(Cl)cc(Cl)cc2Cl)cc1`, 5.88.
For `CC(F)(Cl)Cl` the value was 3.58; for `CCCN(CCC)C(=S)SSC(=S)N(CCC)CCC`, 6.19.
In the case of `N#Cc1c(Cl)c(Cl)c(Cl)c(C#N)c1Cl`, the “48 h LC50 (-log10 mol/L)” value was found to be 6.21.
Next, `Cc1cc(C)c(C)cc1C`: 5.45; `CCOc1ccc2c(c1)C(C)=CC(C)(C)N2`: 5.04; `CCCOC(=O)NCCCN(C)C`: 3.25.
For `CC(C)(C)NC(=O)[C@H]1CC[C@H]2[C@@H]3CC[C@H]4NC(=O)C=C[C@]4(C)[C@H]3CC[C@]12C` the value was 4.25; for `COc1cccc(N)c1`, 5.64.
With `Cc1cc(C)cc(OCC2CNC(=O)O2)c1` (centres undefined), the “48 h LC50 (-log10 mol/L)” value was 3.47.
Next, `CC(C)=CC1C(C(=O)OCc2cccc(Oc3ccccc3)c2)C1(C)C` (centres undefined): 7.69; `CCCC1O[C@@H]2C[C@H]3[C@@H]4CCC5=CC(=O)C=C[C@]5(C)[C@H]4[C@@H](O)C[C@]3(C)[C@]2(C(=O)CO)O1` (some centres undefined): 4.33; `Cc1cn([C@H]2C=C[C@@H](CO)O2)c(=O)[nH]c1=O`: 2.36.
For `CC1(C)C(C=C(Cl)Cl)C1C(=O)OCc1cccc(Oc2ccccc2)c1` (centres undefined) the value was 8.07; for `CCCCN(CC)C(=O)SCCC`, 4.47; for `Clc1ccc(Cl)c(-c2cc(Cl)c(Cl)cc2Cl)c1`, 7.51.
As for `CSc1nc(N)nc(NC(C)(C)C)n1`, the “48 h LC50 (-log10 mol/L)” value is 4.29.
For `COCC(C)OC(C)=O` (centres undefined) the value was 2.51.
Next, `C[C@]12C=CC(=O)C=C1C(Cl)=C[C@@H]1[C@@H]2[C@@H](O)C[C@@]2(C)[C@H]1CC[C@]2(O)C(=O)CO`: 3.96.
For `COc1ccccc1OCCNCC(O)COc1cccc2[nH]c3ccccc3c12` (centres undefined) the value was 5.13; for `O=[N+]([O-])c1ccc(Cl)c([N+](=O)[O-])c1`, 5.4; for `CCNC(=S)NCC`, 2.84.
Turning to `CNC(=S)N(C)C`, the “48 h LC50 (-log10 mol/L)” value was 2.19.
Turning to `CC(C)N(C(=O)SCC(Cl)=C(Cl)Cl)C(C)C`, the “48 h LC50 (-log10 mol/L)” value was determined as 6.46.
For the compound `CCOC(=O)c1ocnc1C`, the “48 h LC50 (-log10 mol/L)” value is 2.67.
In the case of `CC(C)(C)C(=O)Cl`, the “48 h LC50 (-log10 mol/L)” value was found to be 2.58.
Next, `COC(=O)c1ccccc1C(=O)OC`: 3.77; `O=c1[nH]cc(F)c(=O)[nH]1`: 3.72; `Cc1cc(C)cc(C)c1`: 4.3.
With `CCC(Cl)Cl`, the “48 h LC50 (-log10 mol/L)” value was found to be 3.63.
Next, `Cc1csc2ccccc12`: 4.76; `CC1CCCCC1`: 4.82; `C[C@]12CC[C@H]3[C@@H](CCC4=CC(=O)CC[C@@]43C)[C@@H]1CC[C@@H]2O`: 5.17.
Next, `Fc1ccc([C@@H]2CCNC[C@H]2COc2ccc3c(c2)OCO3)cc1`: 5.75; `O=S1c2ccccc2-c2ccccc21`: 4.
For `COc1c(O)cc(Cl)c(Cl)c1Cl` the value was 5.53; for `O[C@@H](CS)[C@@H](O)CS`, 3.76; for `CC(=O)Oc1c(C)cc(OCC(O)CNC(C)C)c(C)c1C` (centres undefined), 3.92.
Consider `CCN(CC)C(=O)SCc1ccc(Cl)cc1`, for which the “48 h LC50 (-log10 mol/L)” value was 5.55.
For `C[C@]12C/C(=C/O)C(=O)C[C@@H]1CC[C@@H]1[C@@H]2CC[C@@]2(C)[C@H]1CC[C@]2(C)O` the value was 4.54; for `CCCCC(CC)COP(=O)(Oc1ccccc1)Oc1ccccc1` (centres undefined), 6.38; for `BrC1CCCCC1`, 3.89.
Next, `CC(C)NCC(O)c1ccc(NS(C)(=O)=O)cc1` (centres undefined): 2.96; `CCOP(=O)(SC(C)CC)N1CCSC1=O` (centres undefined): 5.76.
For `NC(N)=Nc1nc(CSCC/C(N)=N/S(N)(=O)=O)cs1` the value was 2.93; for `CCCCCCCCCCC[C@@H](C[C@@H]1OC(=O)[C@H]1CCCCCC)OC(=O)[C@H](CC(C)C)NC=O`, 4.85; for `COCC(=O)N(c1c(C)cccc1C)[C@H](C)C(=O)OC`, 3.54.
For `Nc1cccc(Cl)c1`, the “48 h LC50 (-log10 mol/L)” value worked out at 6.11.
For `CN(C)C(=S)SSC(=S)N(C)C` the value was 6.06; for `ClCCCCl`, 2.61; for `COc1cc(Cl)c(Cl)c(Cl)c1O`, 5.37.
For `COC1=CC(=O)C[C@@H](C)[C@]12Oc1c(Cl)c(OC)cc(OC)c1C2=O` the value was 2.51.
